Assay results from US11987586B1 (TAKEDA PHARMACEUTICAL COMPANY LIMITED, priority 2022, dated 2024).

Molecular target: T1, human OX2 receptor (Homo sapiens, UniProt O43614)
T1 construct: expressed in transfected cells
T1 sequence (O43614 1-444): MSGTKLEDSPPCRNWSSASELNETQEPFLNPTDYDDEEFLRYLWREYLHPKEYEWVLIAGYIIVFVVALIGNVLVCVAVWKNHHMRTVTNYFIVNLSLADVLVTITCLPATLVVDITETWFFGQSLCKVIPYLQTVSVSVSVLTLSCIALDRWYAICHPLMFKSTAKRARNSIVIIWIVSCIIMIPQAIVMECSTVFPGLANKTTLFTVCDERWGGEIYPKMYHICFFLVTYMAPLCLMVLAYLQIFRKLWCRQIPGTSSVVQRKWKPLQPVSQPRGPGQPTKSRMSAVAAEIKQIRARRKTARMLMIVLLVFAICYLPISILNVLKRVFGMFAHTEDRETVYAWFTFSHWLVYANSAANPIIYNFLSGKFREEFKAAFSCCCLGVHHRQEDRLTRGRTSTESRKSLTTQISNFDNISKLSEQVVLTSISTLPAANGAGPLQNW
Assay: Measurement of orexin type 2 receptor agonist activity (calcium fluorescence, Fluo-4, FDSS)
Assay type: cell-based
Settings: 3 uM test compound; CHO cells expressing human OX2 receptor; DMSO = 0%, 10 nM orexin A (human) = 100%
Outline: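 CHO-K1 cells stably expressing human OX2 receptor (residues 1-444) were loaded with Fluo-4 AM plus probenecid. Calcium fluorescence after compound addition was recorded for 1 min 40 s. Activity (%) was scaled between DMSO (0%) and 10 nM orexin A final (100%).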

Row | OX2R agonist activity (3 uM, %) [%] | SMILES
1 | 94 | COCc1cc(-c2c(F)cc(F)cc2F)c2c(N3CC[C@H]4N(C[C@@H](NS(C)(=O)=O)C4(F)F)C3=O)noc2c1 [Example 210, N-{(4aR,6R)-5,5-difluoro-2-[6-(methoxymethyl)-4-(2,4,6-trifluorophenyl)-1,2-benzoxazol-3-yl]-1-oxooctahydropyrrolo[1,2-c]pyrimidin-6-yl}methanesulfonamide]
2 | 105 | CCS(=O)(=O)NC1Cn2c(cn(-c3noc4cccc(-c5c(F)cccc5F)c34)c2=O)CC1(F)F (single isomer, unassigned) [Example 181, N-{(6R*)-2-[4-(2,6-difluorophenyl)-1,2-benzoxazol-3-yl]-7,7-difluoro-3-oxo-2,3,5,6,7,8-hexahydroimidazo[1,5-a]pyridin-6-yl}ethanesulfonamide]
3 | 108 | Cc1cc(-c2c(F)cc(F)cc2F)c2c(-n3cc4n(c3=O)CC(NS(C)(=O)=O)C(F)(F)C4)noc2n1 (single isomer, unassigned) [Example 245, N-{(6R*)-7,7-difluoro-2-[6-methyl-4-(2,4,6-trifluorophenyl)[1,2]oxazolo[5,4-b]pyridin-3-yl]-3-oxo-2,3,5,6,7,8-hexahydroimidazo[1,5-a]pyridin-6-yl}methanesulfonamide]
4 | 98 | CCS(=O)(=O)N[C@@H]1CN2C(=O)N(c3noc4cc(C)cc(-c5c(F)cccc5F)c34)C[C@@H]2C1(F)F [Example 154, N-{(6R,7aR)-2-[4-(2,6-difluorophenyl)-6-methyl-1,2-benzoxazol-3-yl]-7,7-difluoro-3-oxohexahydro-1H-pyrrolo[1,2-c]imidazol-6-yl}ethanesulfonamide]
5 | 100 | CS(=O)(=O)N[C@H]1C[C@H]2CN(c3noc4cccc(-c5c(F)cccc5F)c34)C(=O)[C@H]2C1 (relative stereo) [Example 338, rel-N-{(3aR,5S,6aS)-2-[4-(2,6-difluorophenyl)-1,2-benzoxazol-3-yl]-1-oxooctahydrocyclopenta[c]pyrrol-5-yl}methanesulfonamide]
6 | 99 | CCS(=O)(=O)N[C@@H]1CN2C(=O)N(c3noc4cccc(-c5ccsc5)c34)CC[C@@H]2C1(F)F [Example 326, N-{(4aR,6R)-5,5-difluoro-1-oxo-2-[4-(thiophen-3-yl)-1,2-benzoxazol-3-yl]octahydropyrrolo[1,2-c]pyrimidin-6-yl}ethanesulfonamide]
7 | 113 | CCS(=O)(=O)N[C@@H]1CN2C(=O)N(c3noc4nccc(-c5c(F)cc(F)cc5F)c34)CC[C@@H]2C1(F)F [Example 235, N-{(4aR,6R)-5,5-difluoro-1-oxo-2-[4-(2,4,6-trifluorophenyl)[1,2]oxazolo[5,4-b]pyridin-3-yl]octahydropyrrolo[1,2-c]pyrimidin-6-yl}ethanesulfonamide]
8 | 109 | O=C1N(c2noc3ccc(F)c(-c4c(F)cccc4F)c23)CC[C@H]2N1C[C@@H](NS(=O)(=O)CF)C2(F)F [Example 270, N-{(4aR,6R)-2-[4-(2,6-difluorophenyl)-5-fluoro-1,2-benzoxazol-3-yl]-5,5-difluoro-1-oxooctahydropyrrolo[1,2-c]pyrimidin-6-yl}-1-fluoromethanesulfonamide]
9 | 100 | O=C1N(c2noc3cc(F)c(F)c(-c4c(F)cccc4F)c23)CC[C@H]2N1C[C@@H](NS(=O)(=O)C1CC1)C2(F)F [Example 312, N-{(4aR,6R)-2-[4-(2,6-difluorophenyl)-5,6-difluoro-1,2-benzoxazol-3-yl]-5,5-difluoro-1-oxooctahydropyrrolo[1,2-c]pyrimidin-6-yl}cyclopropanesulfonamide]
10 | 100 | CS(=O)(=O)N[C@@H]1CN2C(=O)N(c3noc4cc(F)c(F)c(-c5c(F)cc(F)cc5F)c34)C[C@@H]2C1(F)F [Example 171, N-{(6R,7aR)-2-[5,6-Difluoro-4-(2,4,6-trifluorophenyl)-1,2-benzoxazol-3-yl]-7,7-difluoro-3-oxohexahydro-1H-pyrrolo[1,2-c]imidazol-6-yl}methanesulfonamide]
11 | 96 | CS(=O)(=O)N[C@@H]1CN2C(=O)N(c3noc4cc(F)c(F)c(-c5c(F)cccc5F)c34)CC[C@@H]2C1(F)F [Example 252, N-{(4aR,6R)-2-[4-(2,6-difluorophenyl)-5,6-difluoro-1,2-benzoxazol-3-yl]-5,5-difluoro-1-oxooctahydropyrrolo[1,2-c]pyrimidin-6-yl}methanesulfonamide]
12 | 96 | Cc1cc(-c2c(F)cccc2F)c2c(N3CC[C@H]4N(C[C@@H](NS(C)(=O)=O)C4(F)F)C3=O)noc2c1 [Example 209, N-{(4aR,6R)-2-[4-(2,6-difluorophenyl)-6-methyl-1,2-benzoxazol-3-yl]-5,5-difluoro-1-oxooctahydropyrrolo[1,2-c]pyrimidin-6-yl}methanesulfonamide]
13 | 97 | Cc1cc(-c2c(F)cccc2F)c2c(N3C[C@H]4N(C[C@@H](NS(C)(=O)=O)C4(F)F)C3=O)noc2c1 [Example 126, N-{(6R,7aR)-2-[4-(2,6-Difluorophenyl)-6-methyl-1,2-benzoxazol-3-yl]-7,7-difluoro-3-oxohexahydro-1H-pyrrolo[1,2-c]imidazol-6-yl}methanesulfonamide]
14 | 95 | CCS(=O)(=O)N[C@H]1Cc2cn(-c3c(C)nn4cccc(-c5c(F)cccc5F)c34)c(=O)n2C1 [Example 85, N-{(6S)-2-[4-(2,6-difluorophenyl)-2-methylpyrazolo[1,5-a]pyridin-3-yl]-3-oxo-2,5,6,7-tetrahydro-3H-pyrrolo[1,2-c]imidazol-6-yl}ethanesulfonamide]
15 | 102 | Cc1cc(-c2c(F)cc(F)cc2F)c2c(-n3cc4n(c3=O)C[C@@H](NS(C)(=O)=O)C4(F)F)noc2c1 [Example 127, N-{(6R)-7,7-difluoro-2-[6-methyl-4-(2,4,6-trifluorophenyl)-1,2-benzoxazol-3-yl]-3-oxo-2,5,6,7-tetrahydro-3H-pyrrolo[1,2-c]imidazol-6-yl}methanesulfonamide]
16 | 102 | CS(=O)(=O)N[C@@H]1CN2C(=O)N(c3noc4cc(C(F)F)cc(-c5c(F)cc(F)cc5F)c34)C[C@@H]2C1(F)F [Example 274, N-{(6R,7aR)-2-[6-(difluoromethyl)-4-(2,4,6-trifluorophenyl)-1,2-benzoxazol-3-yl]-7,7-difluoro-3-oxohexahydro-1H-pyrrolo[1,2-c]imidazol-6-yl}methanesulfonamide]
17 | 103 | O=C1N(c2noc3cc(OC(F)F)cc(-c4c(F)cccc4F)c23)CC[C@H]2N1C[C@@H](NS(=O)(=O)C1CC1)C2(F)F [Example 256, N-{(4aR,6R)-2-[6-(difluoromethoxy)-4-(2,6-difluorophenyl)-1,2-benzoxazol-3-yl]-5,5-difluoro-1-oxooctahydropyrrolo[1,2-c]pyrimidin-6-yl}cyclopropanesulfonamide]
18 | 98 | Cc1cc2onc(N3C[C@H]4N(C[C@@H](NS(C)(=O)=O)C4(F)F)C3=O)c2c(-c2c(F)cc(F)cc2F)n1 [Example 191, N-{(6R,7aR)-7,7-difluoro-2-[6-methyl-4-(2,4,6-trifluorophenyl)[1,2]oxazolo[4,5-c]pyridin-3-yl]-3-oxohexahydro-1H-pyrrolo[1,2-c]imidazol-6-yl}methanesulfonamide]
19 | 109 | CS(=O)(=O)N[C@H]1C[C@H]2CCN(c3noc4cc(C(F)(F)F)cc(-c5c(F)cccc5F)c34)C(=O)N2C1 [Example 251, N-{(4aR,6S)-2-[4-(2,6-difluorophenyl)-6-(trifluoromethyl)-1,2-benzoxazol-3-yl]-1-oxooctahydropyrrolo[1,2-c]pyrimidin-6-yl}methanesulfonamide]
20 | 96 | CCS(=O)(=O)N[C@H]1Cn2c(cn(-c3noc4cccc(-c5c(F)cccc5F)c34)c2=O)[C@@H]1C (relative stereo) [Example 131, rel-N-{(6R, 7R)-2-[4-(2,6-difluorophenyl)-1,2-benzoxazol-3-yl]-7-methyl-3-oxo-2,5,6,7-tetrahydro-3H-pyrrolo[1,2-c]imidazol-6-yl}ethanesulfonamide]
21 | 100 | Cc1cc(-c2c(F)cc(F)cc2F)c2c(N3C[C@H]4N(C[C@@H](NS(C)(=O)=O)C4(F)F)C3=O)noc2c1 [Example 140, N-{(6R,7aR)-7,7-difluoro-2-[6-methyl-4-(2,4,6-trifluorophenyl)-1,2-benzoxazol-3-yl]-3-oxohexahydro-1H-pyrrolo[1,2-c]imidazol-6-yl}methanesulfonamide]
22 | 93 | COCc1cc2onc(-n3cc4n(c3=O)C[C@@H](NS(C)(=O)=O)C4(F)F)c2c(-c2c(F)cccc2F)c1F [Example 226, N-{(6R)-2-[4-(2,6-difluorophenyl)-5-fluoro-6-(methoxymethyl)-1,2-benzoxazol-3-yl]-7,7-difluoro-3-oxo-2,5,6,7-tetrahydro-3H-pyrrolo[1,2-c]imidazol-6-yl}methanesulfonamide]
23 | 108 | CCS(=O)(=O)N[C@@H]1CN2C(=O)N(c3noc4cccc(-c5c(F)cccc5F)c34)C[C@@H]2C1(F)F [Example 33, N-{(6R,7aR)-2-[4-(2,6-Difluorophenyl)-1,2-benzoxazol-3-yl]-7,7-difluoro-3-oxohexahydro-1H-pyrrolo[1,2-c]imidazol-6-yl}ethanesulfonamide]
